US6770738B1, “Higher order structure and binding of peptide nucleic acids” (ISIS Pharmaceuticals, Inc., priority 1992, dated 2004)

Assays:
[1] = test system: pA98 plasmid relaxed circles (rcDNA); assay: Unwinding of closed circular DNA with PNA; format: binding
Description: Relaxed circular DNA was prepared by treating ordinary supercoiled plasmid DNA with an extract containing DNA topoisomerase I, as described by V. I. Lyamichev, et. al., J. Biomolec. Struct. Dynamics, 3, 327-338 (1985). DNA-PNA complexes were obtained by incubation of 1-2 μg of DNA in 5-20 μL TE with 0.4 optical units./mL of PNA for 4 hours at 20-22° C. This corresponded to about 10 times molar excess of PNA to its potential binding sites. Agarose (1.5%) gel electrophoresis was performed in the TAE buffer containing 1 μg/mL of chloroquine at 10° C. for 15 hours at 1.5 V/cm. Tw—dimensional gel electrophoresis was preformed in the first direction (from top to bottom) in the TAE buffer and in the second direction (from left to right) in the same buffer with addition of 1 μg/mL of chloroquine.
In this example, the efficiency of PNA T10 incorporating into the DNA duplex and displacing the DNA T-strand in solution was shown by unwinding of closed circular DNA by PNA. The pA98 plasaid (Example 16) was prepared in the form of relaxed circles (rcDNA). It was expected that complexing with PHA would unwind about 10 turns of the DNA duplex. Because of topological constraints (the two strands in rcDNA were closed and therefore topologically linked), this unwinding would make the rcDNA molecules behave as if they were positively supercoiled by 10 superturns. […]

[2] = test system: T3 RNA polymerase transcription of pA10KS (d(A10) target); assay: Inhibition of RNA polymerase T3 transcription elongation by PNA; format: biochemical; settings: PNA 1 or 10 uM bound to the template strand
Description: The complex, between PNA T10-LysNH2 (SEQ ID NO:2) (1 or 10 um) and pAIOKS (pBluescriptKS^+ in which the d(A10) target is cloned into the BamHl site, analogous to pTlO) (100 ng) cleaved with restriction enzyme PyuII, XbaI, or BamHl, was formed by incubation in 14 μL 10 m Tris-HCl, 1 mM EDTA, (pH 7.4) buffer for 60 min. at 37° C. Subsequently 4 μL 5× concentrated polymerase buffer (0.2 M Tris-HCl, pH 8.0, 125 mM NaCl, 40 mM MgCl2, 10 mM spermidine) was added together with 15 U T3 RNA polymerase and ATP (10 mM), CTP (10 mM), GTP (10 mM), UTP (1 mM) and ^32P-UTP (0.1 μCi), and the incubation was continued for 10 min. Following ethanol precipitation, the RNA was analyzed by electrophoresis in sequencing gels and the radiolabeled bands were visualized by autoradiography using intensifying screens. The results are shown in FIG. 18: Lane 1: pTIOKS was cut with PyuH and no PNA was present. Lane 2: pTIOKS was cut with BamHl, and no PNA was present. Lane 3: pTIOKS was cut with XbaI, no PNA. Lane 4: as in lane 1 but in the presence of PNA (1 uM). Lane 5: as lane 3+PNA (1 uM). Lane 6: as lane 1+PNA (10 uM). Lane 7: as lane 3+PNA (10 uM).
The complex between the desired PNA and the desired DNA (100 ng) cleaved with the desired restriction enzyme was formed by incubation in 14 μL 10 mM Tris-HCl, 1 mM EDTA, (pH 7.4) buffer for 60 min at 37° C. Subsequently 4 μL 5× concentrated polymerase buffer (0.2 M Tris-HCl, pH 8.0, 125 mM NaCl, 40 mM MgCl2 10 mM spermidine) was added together with 15 U of RNA polymerase and ATP (10 μM), CTP (10 mM), UTP (1 mM) and ^32P-UTP (0.1 μCi). The incubation was continued for 10 min. Following ethanol precipitation, the RNA was analyzed by electrophoresis in polyacrylamide sequencing gels, and radialabeled RNA bands were visualized by autoradiography (using Agfa Curix RPI X-ray films and intensifying screens). Quantitation was performed by densitometric scanning using a Molecular Dynamics laser scanner and the ImageQuant™ software.
In this example transcription arrest with PNAs shorter than 10 mers was examined. […]

H-T10LysNH2 [PNA H-T10-LysNH2]
salt concentration tolerated by complex formed at low salt ([1]; NaCl): at least 500 mM
turns of the double helix released upon binding of PNA ([1]; TE buffer, two-dimensional gel electrophoresis): 8-10 turns
transcription elongation by RNA polymerase T3 [2]: effectively blocked
